Structures can show the parent of a compound that is named as a salt.
What was measured:
[1] = at room temperature; calcium salt; cited from earlier work
[2] = at 50% to 60% relative humidity; listed as crystalline salt of 5-methyl-(6S)-tetrahydrofolic acid and L-methionine ethyl es
[3] = Kinetic solubility in water (one minute agitation, gravimetric evaluation); conditions: for kinetic solubility (mg of 5-methyl-(6S)-tetrahydrofolic acid per mL): purified/de-ionized water, room temperature, agitated one minute, expressed as 5-methyl-(6S)-tetrahydrofolic acid; for amount dissolved within one minute in 2.00 ml water: according to Example 6
Experimental: 42.3 mg of the anhydrous form of the crystalline salt of 5-methyl-(6S)-tetrahydrofolic acid and L-phenylalanine ethyl ester according to Example 4 was weighed into a 7 mL glass vial with a screw cap. 2.00 mL of purified/de-ionized water (for instance water for chromatography) was added to the solid using an adjustable volumetric pipette. The mixture was vigorously agitated at room temperature for one minute.
The solution was filtered by centrifugal filtration and 1.50 mL of the aqueous solution was transferred into a tared glass vial (about 10 mL volume). The water was evaporated in an air dryer at 40° C. for about 15 hours, then at 50° C. for about eight hours, subsequently drying was completed at 50° C. under vacuum (10 to 20 mbar) for about 13 hours. The solubility was determined by gravimetric evaluation of the solid residue.
2.00 mL of purified/de-ionized water (for instance water for chromatography) was added to the solid using an adjustable volumetric pipette. The mixture was vigorously agitated at room temperature for one minute. […] The suspension was filtered by centrifugal filtration and 1.50 mL of the aqueous solution was transferred into a tared glass vial (about 10 mL volume). The water was evaporated in an air dryer at 40° C. for about 15 hours, then at 50° C. for about eight hours, subsequently drying was completed at 50° C. under vacuum (10 to 20 mbar) for about 13 hours. The solubility was determined by gravimetric evaluation of the solid residue.

[4] = Dynamic water vapor sorption (DVS) experiment; type: physicochemical; conditions: FIG. 3; for change of relative sample mass during DVS test: RH program 50→20→75→50%, 5% per hour; for change in water content: relative humidity range between 20% and 75%
Experimental: DVS measurements are typically performed with an SPS11-100n “Sorptions Prufsystem” from ProUmid (formerly “Projekt Messtechnik”), August-Nagel-Str. 23, 89079 Ulm (Germany).
22 mg of the salt of 5-methyl-(6S)-tetrahydrofolic acid with L-phenylalanine ethyl ester Form B according to Example 2 was weighed into an aluminum sample pan for DVS measurement. A DVS measurement was performed. For relative humidity (RH) scans, change rates of 5% per hour were used. The sample pan was placed into the instrument and a defined relative humidity change program was started according to the following steps: • (1) Maintained RH for 2 hours at 50%, then • (2) scanned RH from 50→20% at a rate of 5% per hour and maintained RH at 20% for 10 hours, then • (3) scanned RH from 20→75% at a rate of 5% per hour and maintained RH at 75% for 10 hours, then • (4) scanned RH from 75→50% RH at a rate of 5% per hour and maintained RH at 50% for two hours.

Compound: 5-methyl-(6S)-tetrahydrofolic acid calcium salt [calcium salt (Form III)]
- aqueous solubility [1]: about 2.5 mg/ml

Compound: 5-methyl-(6S)-tetrahydrofolic acid L-methionine ethyl ester salt [Example 7]
- water content [2]: below 1%

Compound: CCOC(=O)[C@@H](N)Cc1ccccc1.CCOC(=O)[C@@H](N)Cc1ccccc1.CN1c2c([nH]c(N)nc2=O)NC[C@@H]1CNc1ccc(C(=O)N[C@@H](CCC(=O)O)C(=O)O)cc1 [Example 4, 5-methyl-(6S)-tetrahydrofolic acid L-phenylalanine ethyl ester 1:2 salt]
- kinetic solubility (mg of 5-methyl-(6S)-tetrahydrofolic acid per mL) [3]: 11.3 mg per mL

Compound: 5-methyl-(6S)-tetrahydrofolic acid L-methionine ethyl ester salt [Example 8]
- water content [2]: about 5%

Compound: CCOC(=O)[C@@H](N)Cc1ccccc1.CCOC(=O)[C@@H](N)Cc1ccccc1.CN1c2c([nH]c(N)nc2=O)NC[C@@H]1CNc1ccc(C(=O)N[C@@H](CCC(=O)O)C(=O)O)cc1 [5-methyl-(6S)-tetrahydrofolic acid L-phenylalanine ethyl ester 1:2 salt]
- amount dissolved within one minute in 2.00 ml water [3]: 11.3 mg
- improvement of kinetic solubility versus calcium salt metastable Form I ([3]; versus the known (metastable Form I) of the calcium salt): about 50%
- change of relative sample mass during DVS test [4]: less than 0.3%
- change in water content [4]: less than 0.3%

Compound: CN1c2c(nc(N)[nH]c2=O)NC[C@@H]1CNc1ccc(C(=O)N[C@@H](CCC(=O)O)C(=O)O)cc1 [5-methyl-(6S)-tetrahydrofolic acid calcium salt, reference compound]
- amount dissolved within one minute in 2.00 ml water [3]: 9.0 mg
- kinetic solubility (mg of 5-methyl-(6S)-tetrahydrofolic acid per mL) [3]: 9.0 mg per mL
- solubility kinetic at 1 min ([3]; water, thermodynamic from solid): < 10000 µg/mL
- change of relative sample mass during DVS test [4]: about 3%
- change in water content [4]: about 3%

Compound: 5-methyl-(6S)-tetrahydrofolic acid L-methionine ethyl ester salt
- kinetic solubility expressed as 5-methyl-(6S)-tetrahydrofolic acid ([3]; at r.t., corresponds to mg/ml of 5-methyl-(6S)-tetrahydrofolic acid): greater than 18 mg/ml

Compound: 5-methyl-(6S)-tetrahydrofolic acid calcium salt [calcium salt (Form I)]
- aqueous solubility [1]: about 10 mg/ml

Reference: patent US12221445B2, “Crystalline salts of 5-methyl-(6S)-tetrahydrofolic acid and amino ethyl esters” (MERCK PATENT GMBH, priority 2018, dated 2025)
